From PMC8485799, “Synthesis and Antiprotozoal Profile of 3,4,5‐Trisubstituted Isoxazoles” (ChemistryOpen, 2021)

How the values were obtained:
[1] = test system: promastigote forms of Leishmania amazonensis (WHOM/BR/75/JOSEFA strain); assay: Antiproliferative assay (XTT), promastigote forms, 72 h; assay type: cell-based; details: for IC50: Leishmania amazonensis, promastigote form, 72 h, XTT, read-out: L. amazonensis IC50; for SIL-F, selectivity index (Fibroblast CC50/L. amazonensis IC50): fibroblast vs promastigote; for SIL-M, selectivity index (Macrophages CC50/L. amazonensis IC50): macrophages vs promastigote
Method: (§1) The antiproliferative activity was determined in promastigote forms of Leishmania amazonensis (WHOM/BR/75/JOSEFA strain) and epimastigote forms of Trypanosoma cruzi (Y strain). The promastigote forms of L. amazonensis were cultured in Warren medium (brain heart infusion, hemin, and folic acid; pH 7.4) supplemented with 10 % fetal bovine serum (FBS) at 25 °C. The epimastigote forms of T.cruzi were cultured in LIT medium (liver infusion tryptose; hemin, and folic acid; pH 7.4) supplemented with 10 % FBS at 28 °C. Cytotoxicity in mammalian cells was determined in fibroblast line (L929) and macrophages (J774 A1). Fibroblasts were cultured in DMEM medium (pH 7.2) supplemented with 10 % FBS at 37 °C in a 5 % CO2 atmosphere. Macrophages were cultured in RPMI‐1640 (pH 7.2) medium supplemented with 10 % FBS at 37 °C in a 5 % CO2 atmosphere.
(§2) Stock solutions of the compounds were prepared in DMSO and then diluted in the respective medium.
(§3) Promastigote forms (1×10^6 parasites.mL^−1) were cultured in 96‐well plates in the presence and absence of different concentrations of compounds diluted in Warren medium supplemented with 10 % FBS and incubated for 72 h. The epimastigote forms (1×10^6 parasites.mL^−1) were cultured in 96‐well plates in the presence and absence of different concentrations of compounds diluted in LIT medium supplemented with 10 % FBS and incubated for 96 h. After treatment, the parasites were incubated with a solution of 2,3‐bis(2‐methoxy‐4‐nitro‐5‐sulfophenyl)‐2H‐tetrazolium‐5‐carboxanilide (XTT; 0.5 mg.mL^−1) and phenazine methanesulfonate activator (PMS; 0.06 mg.mL^−1) in PBS for 4 h. Then, the absorbance was read in a microplate reader (Bio Tek‐Power Wave XS) at 450 nm.[20] The percentage of viable parasites was calculated in relation to the control in order to determine the concentration that inhibits 50 % of the protozoa (IC50). The control groups of each experiment received the same experimental conditions as the treated groups (cell concentration used, temperature, and incubation time).

[2] = Cytotoxicity assay in mammalian cells (MTT), fibroblasts, 72 h; assay type: cell-based; details: mouse, L929 fibroblast cells, pH 7.2; 50 % inhibition of fibroblast growth, 72 h, MTT
Method: as §1, §2
(§4) Fibroblast cell (2.5×10^5 cells.mL^−1) suspensions were prepared in DMEM medium supplemented with 10 % FBS and added to 96‐well plates. Then, the plates were incubated at 37 °C in a CO2 atmosphere for 24 h to obtain confluent cell growth. After incubation, cells were treated with different concentrations of compounds diluted in DMEM for 72 h or left untreated. Macrophage (5×10^5 cells.mL^−1) suspensions were prepared in RPMI‐1640 medium supplemented with 10 % FBS and added to 96‐well plates. Then, the plates were incubated at 37 °C in a CO2 atmosphere for 24 h to obtain confluent cell growth. After incubation, cells were treated with different concentrations of compounds diluted in RPMI‐1640 for 48 h or left untreated. After treatment, the medium was removed, and cells were incubated with MTT (2 mg.mL^−1) for 4 h. Then, DMSO was added for solubilization of the formazan and analyzed with a reading microplate reader (BIO‐TEK PowerWave XS spectrophotometer) at […].[20] The percentage of viable cells was calculated in relation to the untreated control group to determine the cytotoxic concentration in 50 % of the cells (CC50). The control groups of each experiment received the same experimental conditions as the treated groups (cell concentration used, temperature, CO2, and incubation time).

[3] = test system: epimastigote forms of Trypanosoma cruzi (Y strain); assay: Antiproliferative assay (XTT), epimastigote forms, 96 h; assay type: cell-based; details: for IC50: Trypanosoma cruzi, epimastigote form, 96 h, XTT, read-out: T. cruzi IC50; for SIT-F, selectivity index (Fibroblast CC50/T. cruzi IC50): fibroblast vs epimastigote; for SIT-M, selectivity index (Macrophages CC50/T. cruzi IC50): macrophages vs epimastigote
Method: as §1, §2, §3

[4] = Cytotoxicity assay in mammalian cells (MTT), macrophages, 48 h; assay type: cell-based; details: mouse, J774 A1 macrophages, pH 7.2; 50 % inhibition of macrophages growth, 48 h, MTT
Method: as §1, §2, §4

Row | SMILES | IC50 [1] [µM] | SIL-F, selectivity index (Fibroblast CC50/L. amazonensis IC50) [1] | SIL-M, selectivity index (Macrophages CC50/L. amazonensis IC50) [1] | CC50 at 72 h [2] [µM] | IC50 [3] [µM] | SIT-F, selectivity index (Fibroblast CC50/T. cruzi IC50) [3] | SIT-M, selectivity index (Macrophages CC50/T. cruzi IC50) [3] | CC50 at 48 h [4] [µM] | melting point [°C]
1 | CCOC(=O)c1noc(-c2ccc(Cl)cc2)c1CNc1ccccc1 [2 da] | 29.9 ± 2.1 | 5.28 | 5.17 | 158 ± 7.7 | 32.9 ± 3.7 | 4.80 | 4.70 | 155 ± 3 | 172.9 to 173.4
2 | CCOC(=O)c1noc(-c2ccc(Cl)cc2)c1CNc1ccc(Cl)cc1 [2 db] | 21.6 ± 2.2 | 4.61 | 4.07 | 99.5 ± 5.7 | 22.4 ± 2.6 | 4.44 | 3.92 | 87.9 ± 4.6 | 173.3 to 175.4
3 | COc1ccc(NCc2c(C(=O)N/N=C/c3ccccc3)noc2-c2ccc([N+](=O)[O-])cc2)cc1 [4 ac] | 14.5 ± 2.2 | 16.63 | 14.43 | 241 ± 3.8 | 18.7 ± 1.4 | 12.89 | 11.19 | 209 ± 8.5 | 
4 | O=C(N/N=C/c1ccccn1)c1noc(-c2ccc([N+](=O)[O-])cc2)c1CNc1ccc(Cl)cc1 [5 ab] | 26 ± 2.1 | 3.88 | 3.55 | 101 ± 4.4 | 24.7 ± 2.9 | 4.08 | 3.81 | 94.2 ± 3.9 | 
5 | COc1ccc(NCc2c(C(=O)N/N=C/c3ccccn3)noc2-c2ccc([N+](=O)[O-])cc2)cc1 [5 ac] | > 200 |  |  | 801 ± 10.4 | > 200 |  |  | 723.6 ± 3 | 
6 | COc1ccc(NCc2c(C(=O)N/N=C/c3ccccn3)noc2-c2ccccc2)cc1 [5 bc] | 17.9 ± 3.7 | 10.3 | 9.88 | 184 ± 5.1 | 19.4 ± 1.1 | 9.50 | 9.11 | 177 ± 9.8 | 
7 | COc1ccc(NCc2c(C(=O)N/N=C/c3ccccn3)noc2-c2ccc(F)cc2)cc1 [5 cc] | 18 ± 2.5 | 16.16 | 14.18 | 291 ± 4.7 | 19.7 ± 0.9 | 14.76 | 12.96 | 255 ± 8.1 | 
8 | O=C(N/N=C/c1ccc(-c2cccs2)s1)c1noc(-c2ccc([N+](=O)[O-])cc2)c1CNc1ccc(Cl)cc1 [6 ab] | 12.7 ± 1.1 | 9.12 | 7.50 | 116 ± 5.5 | 13.8 ± 1.5 | 8.39 | 6.91 | 95.3 ± 5.3 | 
9 | COc1ccc(NCc2c(C(=O)N/N=C/c3ccc(-c4cccs4)s3)noc2-c2ccc([N+](=O)[O-])cc2)cc1 [6 ac] | 48.9 ± 7.1 | 4.72 | 3.75 | 231 ± 5.9 | 52.5 ± 2.9 | 4.40 | 3.50 | 184 ± 3 | 
10 | O=C(N/N=C/c1ccc(-c2cccs2)s1)c1noc(-c2ccccc2)c1CNc1ccccc1 [6 ba] | 46.9 ± 3 | 4.45 | 4.19 | 209 ± 2.9 | 52.4 ± 2.9 | 3.98 | 3.75 | 196 ± 4.4 | 
11 | O=C(N/N=C/c1ccc(-c2cccs2)s1)c1noc(-c2ccc(F)cc2)c1CNc1ccccc1 [6 ca] | 34.6 ± 2.4 | 11.2 | 8.92 | 388 ± 4.7 | 42.7 ± 5.6 | 9.07 | 7.22 |  | 
12 | O=C(N/N=C/c1ccc(-c2cccs2)s1)c1noc(-c2ccc(F)cc2)c1CNc1ccc(Cl)cc1 [6 cb] | 19.7 ± 2.6 | 10.9 | 10.6 | 215 ± 8.9 | 20.4 ± 3.6 | 10.5 | 10.3 | 210 ± 3.1 | 
13 | COc1ccc(NCc2c(C(=O)N/N=C/c3ccc(-c4cccs4)s3)noc2-c2ccc(F)cc2)cc1 [6 cc] | 20.6 ± 1.7 | 15.32 | 12.97 | 316 ± 10.8 | 22.8 ± 3 | 13.84 | 11.71 | 267 ± 7.9 | 
14 | O=C(N/N=C/c1ccc(-c2cccs2)s1)c1noc(-c2ccc(Cl)cc2)c1CNc1ccc(Cl)cc1 [6 db] | 38.5 ± 4.6 | 8.04 | 7.81 | 310 ± 3.1 | 33.6 ± 4.8 | 9.21 | 8.94 | 300 ± 4.2 | 
